Results: EP1289557B1, “CANCER TREATMENT COMPOSITION CONTAINING AN ANTI-NEOPLASTIC AGENT AND A PDE4 INHIBITOR” (GLAXO GROUP LIMITED, priority 2000, dated 2001)

Experiments:
A549 (lung) = assay: Tumor cell growth (sulforhodamine B) after chemoprotectant regimen and paclitaxel; format: cell-based, human; conditions: forskolin (100 µM) plus PDE4 inhibitor (1 µM), then paclitaxel (100 nM); cell line not completely inhibited by paclitaxel
Description: (§1) The human tumor cell lines HT-29 (colon: ATCC# HTB 38), RKO (colon, ATCC# HTB 130), lines A549 (lung, ATCC# CCL 185), and MDA468 (breast, ATCC# HTB 132) were obtained from the American Type Culture Collection and maintained in DMEM containing 10% FBS. Tumor cells were grown at 37°C in a humidified atmosphere of 5% CO2. Adherent tumor cells were seeded into 96 well plates and incubated for six hours to allow for attachment. After six hours the chemoprotectants forskolin (100 µM) plus rolipram (1 µM) or forskolin (100 µM) plus Ariflo™ (1µM) were added. After overnight incubation, paclitaxel (100 nM) was added for 24 hours. Cells were then washed free of chemoprotectants and paclitaxel, placed in fresh media, and grown for 5 days. Growth was measured daily using sulforhodamine B (Skehan P. et. al., (1990), J. Nat'l Cancer Inst 82:1107-12). The results are depicted in Figure 8.

RKO (colon) = assay: as above; format: cell-based, human; conditions: forskolin (100 µM) plus PDE4 inhibitor (1 µM), then paclitaxel (100 nM) 24 hours; versus DMSO pretreatment
Description: as §1

HT-29 (colon) = assay: as above; format: cell-based, human; conditions: forskolin (100 µM) plus PDE4 inhibitor (1 µM), then paclitaxel (100 nM) 24 hours; versus DMSO pretreatment
Description: as §1

[1] = Cell based assays utilized herein, PDE4 inhibitor used alone; conditions: without forskolin
[2] = test system: expanded CD34^+ stem cells; assay: Flow cytometric (FACS) evaluation of percent live cells after chemoprotectant pretreatment and paclitaxel; format: cell-based, Human; conditions: pretreatment rolipram (1µM) plus Forskolin (100 µM) 24 hours
Description: Prevention of myelosuppression was shown by protection of neutrophil progenitors by PDE4 inhibitors from the cytotoxic effects of cancer chemotherapeutic agents. In Examples 2-7 a variety of chemically distinct PDE4 inhibitors were tested for their ability to protect neutrophil progenitors. Three methods, more completely described in the following examples, were utilized for a determination of cell survival and ability to produce daughter cells of primary human neutrophil progenitors: (1) a FACS assay which determined the percent of live cells by size and granularity; (2) a colony forming assay which measured the number of CFU-GM progenitors (a specific early stage neutrophil progenitor); and (3) a cell-based EUSA which measured CD15 antigen the value of which was proportional to the number of neutrophil lineage cells. This assay allows evaluation of neutrophil progenitors (cells that can divide and produce daughter neutrophil-lineage cells) at multiple stages of differentiation.
Human bone marrow samples were collected from presumed healthy human donors following informed consent through an agreement with Duke University Medical Center, Durham, North Carolina. Mononuclear cells were isolated using a 1.077 Ficoll-Paque gradient according to the published procedure (Dornsife, RE et al., Antimicrob Agents Chemother, 35: 322-328, (1991)) and were suspended in HBSS with 2% FBS at a concentration of 5 X 10^7 cells/ml. CD34^+ stem cells were isolated by "StemSep™ CD34^+ stem cell selection kit" by following the instructions from the manufacturer (Stem Cell Technologies). Cells were adjusted to 1 x 10^6 cells/ml in complete growth media and maintained in a humidified, 5% CO2 incubator. The complete growth media was IMDM supplemented with 20% FBS, 1% penicillin-streptomycin antibiotics, the recombinant human cytokines (Biosource)Flt-3/Flk-2 ligand (50 ng/ml), stem cell factor (50 ng/ml), interleukin-3 (40ng/ml), and G-CSF (10 ng/ml). The cells were maintained at a density of between 0.5 and 3 x 10^5 cells/ml. The CD34+ stem cells were expanded in culture over an average range of 11 to 23 days. Five groups of expanded CD34+ cells were treated with rolipram (1µM), plus Forskolin (100 µM), an adenylate cyclase activator, for 24 hours and five groups of expanded CD34+ cells were treated with DMSO for 24 hours. After 24 hours, to the 5 sets of cells that were treated with DMSO and 5 groups of cells treated with rolipram plus forskolin, paclitaxel was added to give final concentrations of 0, 30, 100, 300, and 600 nM of paclitaxel respectively and incubated for an additional 24 hours. After the 48 hours of treatment, the cells were counted, washed and re-suspended in PBS with 2% FBS. […] The prepared cells were analyzed on a BD FACSort flow cytometer. […]

SMILES	effect of chemoprotectant regimen on inhibition of tumour cell growth by paclitaxel (A549 (lung))	effect of chemoprotectant regimen on inhibition of tumour cell growth by paclitaxel (RKO (colon))	effect of chemoprotectant regimen on inhibition of tumour cell growth by paclitaxel (HT-29 (colon))	protective effect when used alone [1]	surviving cell fractions ([2]; then paclitaxel 30nM 24 hours, DMSO pretreatment gave 45%) [%]	surviving cell fractions ([2]; then paclitaxel 100nM 24 hours, DMSO pretreatment gave 27%) [%]	surviving cell fractions ([2]; then paclitaxel 300nM 24 hours, DMSO pretreatment gave 23%) [%]	surviving cell fractions ([2]; then paclitaxel 600nM 24 hours, DMSO pretreatment gave 18%) [%]
COc1ccc([C@]2(C#N)CC[C@@H](C(=O)O)CC2)cc1OC1CCCC1 [Ariflo™, cis-4-cyano-4-[3-(cyclopentyloxy)-4-methoxyphenyl]cyclohexane-1-carboxylic acid]	no additional protection	no effect on the inhibition of tumour cell growth	no effect on the inhibition of tumour cell growth					
COc1ccc(C2CNC(=O)C2)cc1OC1CCCC1 (centres unmarked) [Rolipram, rolipram]	no additional protection	no effect on the inhibition of tumour cell growth	no effect on the inhibition of tumour cell growth	little protective effect	86	81	63	59
